{
  "source": "patent US7468281B2",
  "about": "“Hollow fiber membrane sample preparation devices” (priority 2001, dated 2008)",
  "key": {"[1]": {"test": "LPME with different supported liquid membrane liquids, 96 well format device, HPLC analysis", "settings": "0.1 M hydrochloric acid acceptor, 30 min", "text": "A mixture of acidic and basic drugs was used in this study, together with 0.1 M hydrochloric acid or 0.1 M sodium hydroxide as the acceptor phase.\nFour different membrane forming small molecular weight organic liquids were investigated for selectivity differences, viz. hexyl ether, 4-nitrophenyl octyl ether, 1-octanol and 2-octyl-1-dodecanol. […] A cover plate of a 96 well block, carrying polypropylene fiber of 8 cm length, 600 μm inner diameter and 0.2 μm pore size, was dipped into each of these pure liquids for 5 seconds. These liquids were contained in different wells of a 96 well plate. The fibers in the cover plate were then washed by sonication in water for 15 seconds to remove excess material sticking to the fibers. A five component mixture of acidic and basic drugs was prepared from acetaminophen, naproxen, bamethane, quinidine and doxepin. Concentrations of the stock drug solutions were 1.0 mg/mL in each case. […] This is to maintain roughly the same level of analytical signal with each of these drugs. The mixture was diluted to 20 mL with water so that the concentrations of the three dilute drugs is in the range of 1 μg/mL, while those of the more concentrated drugs is in the range of 5 μg/mL. 500 μL of this diluted mixture of drugs is further diluted eight fold (to 4 mL) with water containing 250 μL of 2.0 M sodium hydroxide and used for extraction. […] The acceptor solution consisted of 25 μL of 0.1 M hydrochloric acid in each case. Extraction time with vibration was 30 min for each membrane liquid. The enriched acceptor solution was diluted three fold in each case and 25 μL of the resulting diluted solution used for analysis by high performance liquid chromatography on a Omnisphere C18 column using acetonitrile/pH 7.0 dipotassium hydrogen phosphate as mobile phase. A gradient from 5% acetonitrile to 40% was used to elute the strongly retained components in a reasonable time frame."}, "[2]": {"test": "LPME of seven basic drugs from water with different acidic acceptor phases, CE analysis", "type": "physicochemical"}, "[3]": {"test": "LPME of eight basic drugs from water with phosphate buffer acceptors of different pH, CE analysis", "type": "physicochemical"}, "[4]": {"test": "LPME of seven basic drugs with different hollow fibres (polypropylene, polysulfone)", "type": "physicochemical"}, "[5]": {"test": "LPME of drugs from human plasma, urine and whole blood with vial format device, CZE analysis", "type": "physicochemical"}, "[6]": {"settings": "supported liquid membrane 1-octanol"}, "[7]": {"settings": "supported liquid membrane 2-octyl-1-dodecanol"}, "[8]": {"settings": "supported liquid membrane 4-nitrophenyl octyl ether"}, "[9]": {"settings": "supported liquid membrane Hexyl Ether"}},
  "note": "Values joined by “and” are separate entries in the source; they are usually repeats but may differ in a detail not shown here. Equal values may be shown once.",
  "data": [
    {"smiles": "CN(C)CCC=C1c2ccccc2COc2ccccc21", "note": "[doxepin]", "values": [
      {"measurement": "Enrichment", "setting": "[1]; [6]", "result": 58},
      {"measurement": "Enrichment", "setting": "[1]; [7]", "result": 147},
      {"measurement": "Enrichment", "setting": "[1]; [8]", "result": 227},
      {"measurement": "Enrichment", "setting": "[1]; [9]", "result": 202}
    ]},
    {"smiles": "CCOC(=O)C1(c2ccccc2)CCN(C)CC1", "note": "[pethidine]", "values": [
      {"measurement": "Enrichment (average of 3 replicates)", "setting": "[2]; pH 1.1", "result": 64},
      {"measurement": "Enrichment (average of 3 replicates)", "setting": "[2]; pH 1.2", "result": 139},
      {"measurement": "Enrichment (average of 3 replicates)", "setting": "[2]; pH 1.3", "result": 141},
      {"measurement": "Enrichment (average of 3 replicates)", "setting": "[2]; pH 1.8", "result": 90},
      {"measurement": "Enrichment (average of 3 replicates)", "setting": "[2]; pH 1.9", "result": 106},
      {"measurement": "Enrichment (average of 3 replicates)", "setting": "[2]; pH 2.1", "result": "128 and 144"},
      {"measurement": "Enrichment (average of 3 replicates)", "setting": "[2]; pH 2.3", "result": 106},
      {"measurement": "Enrichment (average of 3 replicates)", "setting": "[2]; pH 2.5", "result": 98},
      {"measurement": "Enrichment (average of 3 replicates)", "setting": "[2]; pH 2.7", "result": 90},
      {"measurement": "Enrichment (average of 3 replicates)", "setting": "[2]; pH 3", "result": 131},
      {"measurement": "Enrichment (average of 3 replicates)", "setting": "[2]; pH 3.1", "result": 115},
      {"measurement": "Enrichment (average of 3 replicates)", "setting": "[2]; pH 3.3", "result": "96 and 139"},
      {"measurement": "Enrichment (average of 3 replicates)", "setting": "[2]; pH 4.8", "result": "106 and 91"},
      {"measurement": "Enrichment (average of 3 replicates)", "setting": "[3]; pH 2.5", "result": 160},
      {"measurement": "Enrichment (average of 3 replicates)", "setting": "[3]; pH 3.5", "result": 147},
      {"measurement": "Enrichment (average of 3 replicates)", "setting": "[3]; pH 4.5", "result": 131},
      {"measurement": "Enrichment (average of 3 replicates)", "setting": "[3]; pH 5.5", "result": 90},
      {"measurement": "Enrichment (average of 3 replicates)", "setting": "[3]; pH 6.5", "result": 34},
      {"measurement": "Enrichment (average of 3 replicates)", "setting": "[3]; pH 7.5", "result": 6},
      {"measurement": "Enrichment (average of 3 replicates)", "setting": "[4]", "result": "125 and 128 and 122"},
      {"measurement": "Enrichment", "setting": "[5]", "result": "74%/7.4 and 72%/7.2"},
      {"measurement": "Extraction efficiency", "setting": "[5]", "result": "74%/7.4 and 72%/7.2"}
    ]},
    {"smiles": "C=C[C@H]1C[N@@]2CC[C@H]1C[C@@H]2[C@@H](O)c1ccnc2ccc(OC)cc12", "note": "[quinidine]", "values": [
      {"measurement": "Enrichment", "setting": "[1]; [6]", "result": 100},
      {"measurement": "Enrichment", "setting": "[1]; [7]", "result": 20},
      {"measurement": "Enrichment", "setting": "[1]; [8]", "result": 52},
      {"measurement": "Enrichment", "setting": "[1]; [9]", "result": 100}
    ]}
  ]
}
